What was measured:
[1] = Lipophilicity assay (octanol/buffer Log D); format: physicochemical; settings: pH 7.4, n-octanol/sodium phosphate buffer
Procedure: 1.56 g NaH2PO4·2H2O was dissolved in 0.5 L water in a 1 L beaker. After adjusting pH to 7.4 using NaOH solution, the volume was made up to 1 L. Equal volumes of sodium phosphate buffer (10 mM, pH 7.4) and n-octanol were added to a separation funnel and mixed thoroughly by shaking and inverting the funnel several times. The two layers were allowed to separate for overnight and then dispensed in two separate glass bottles. 10 mM stock solution was prepared in 100% DMSO and stored at 4° C. 495 μL of organic phase (1-octanol) was added to each well of a 2 mL deep well plate, followed by 495 μL of buffer and 10 μL of test substance was added. The plate was incubated for 3 hrs at room temperature on a plate shaker at 500 rpm. After incubation, the samples were allowed to equilibrate for 20 min and then centrifuged at 4000 rpm for 30 min for complete phase separation and analysed by LC-UV. Log D=Log (area of octanol/area of buffer)

Plasma stability assay = format: in vitro ADME; settings: 1 μM, 37° C.
Procedure: 1 mM Stock of test compound was prepared from 10 mM initial stock solution of compounds by diluting 10 μL of 10 mM stock with 90 μL of DMSO. Then 10 μL of 1 mM stock was diluted with 90 μL of DMSO to give 100 μM concentration. The frozen plasma was thawed at room temperature and centrifuged at 1400 rpm at 4° C., for 15 minutes. Approximately 90% of the clear supernatant fraction was transferred to a separate tube and was used for the assay. Final working stock of 1 μM was prepared by diluting 3 μL of 100 μM with 297 μL of plasma. Plasma containing the test compound was incubated for 120 min at 37° C. in shaker with 500 rpm. 50 μL of aliquot of sample at 0, 15, 30, 60 and 120 minutes were precipitated with 150 μL of acetonitrile containing internal standard and centrifuged at 4000 rpm at 4° C. for 20 minutes. 120 μL of supernatant was diluted with 120 μL of water and analysed by LC-MS/MS.

[2] = Determination of EC50 (in-vitro)
[3] = test system: C57BL/6 mice fed with high fat diet (HFD); experiment: HFD induced fatty liver disease model; format: in vivo; settings: HFD 12 weeks, 80 mg/kg orally for the last 4 weeks
Procedure: A preclinical therapeutic model was developed where C57BL/6 mice were fed with 60% kcal high fat diet (HFD) for 12 weeks, and for the last 4 weeks the mice were orally fed with the compound 62 at 80 mg/kg body weight dose.

COP1 = molecular target: T1, COP1 (Mus musculus, UniProt Q9R1A8); experiment: In vivo study, Western blot of COP1 in mice liver and adipose tissue; parameters: species or system C57BL/6 mice; settings: 80 mg/kg orally, 9 days
T1 construct: from tissue; host or cells: liver and adipose tissue of C57BL/6 mice
Procedure: (§1) 6-8 weeks old healthy male C57BL/6 mice (average weight: 28 grams) were taken for the study. These were then divided into two groups comprising of three mice per group (Control, compound 62). Mice were fed with 80 mg/kg of compound 62 orally. The compound was dissolved in 10% EtOH, 40% PEG, 20% PG, 30% NaCl solution (0.9%). The control group was fed only with the solvent in which the compound was dissolved. Post 9 days of one-time feeding mice were sacrificed and a portion of the excised liver tissue and adipose was homogenized in lysis buffer containing protease inhibitor cocktail. The homogenate was centrifuged at 20,000 g for 30 minutes following which the supernatant containing the protein lysate was collected. The lysate was then diluted accordingly, and protein estimation was carried out by Bradford Assay. This was followed by Western Blotting wherein the levels of ATGL and COP1 were checked. Actin was used as the loading control.

ATGL [4] = experiment: Western blot of ATGL level in primary mouse hepatocytes; format: cell-based; settings: 10 nM to 500 nM, 24 hours, with respect to control
Procedure: To further strengthen the efficiency of the compound 62, primary hepatocytes were isolated from mice and these compounds were treated in a dose dependent manner for 24 hours. Primary hepatocytes and adipose tissue explants were isolated from mice and subjected to compound treatment for 24 hours at the doses of 10 nM, 20 nM, 50 nM, 100 nM and 500 nM. Post cell harvesting, western blot was carried out with the lysate to check the ATGL level. ATGL and COP1 antibodies were used. Actin served the purpose of a loading control.
Hepatocytes-2-4 months old chow-fed black male mouse (C57b1/6) was sacrificed using chloroform (SRL) and was cleaned with 70% ethanol. […] Blood was drawn from the heart in order to prevent backflow into liver while perfusion. The butterfly cannula was inserted into the PV and 20 ml of HBSS (Hank's Balanced Salt Solution; 5 mM KCl, 0.4 mM KH2PO4, 4 mM NaHCO3, 140 mM NaCl, 0.3 mM Na2HPO4, 6 mM Glucose, HEPES, 0.5 mM MgCl2.6H2O, 0.4 mM MgSO4·7H2O, 0.5 mM EDTA; not containing 1 mM CaCl2)) was allowed to pass through the liver (Perfusion) at a constant flow rate of 3 ml/min, maintained by Masterflex digital peristaltic pump (Cole-Parmer). The IVC was cut as soon as the passage of the buffer through the liver began, so that blood and perfusate from liver was drained through the IVC. The liver blanched and became pale in color upon this treatment. […]

ATGL [5] = experiment: In vivo study, Western blot of ATGL in mice liver and adipose tissue; parameters: species or system C57BL/6 mice; settings: 80 mg/kg orally, 9 days
Procedure: as §1

T1 sequence (Q9R1A8 whole entry): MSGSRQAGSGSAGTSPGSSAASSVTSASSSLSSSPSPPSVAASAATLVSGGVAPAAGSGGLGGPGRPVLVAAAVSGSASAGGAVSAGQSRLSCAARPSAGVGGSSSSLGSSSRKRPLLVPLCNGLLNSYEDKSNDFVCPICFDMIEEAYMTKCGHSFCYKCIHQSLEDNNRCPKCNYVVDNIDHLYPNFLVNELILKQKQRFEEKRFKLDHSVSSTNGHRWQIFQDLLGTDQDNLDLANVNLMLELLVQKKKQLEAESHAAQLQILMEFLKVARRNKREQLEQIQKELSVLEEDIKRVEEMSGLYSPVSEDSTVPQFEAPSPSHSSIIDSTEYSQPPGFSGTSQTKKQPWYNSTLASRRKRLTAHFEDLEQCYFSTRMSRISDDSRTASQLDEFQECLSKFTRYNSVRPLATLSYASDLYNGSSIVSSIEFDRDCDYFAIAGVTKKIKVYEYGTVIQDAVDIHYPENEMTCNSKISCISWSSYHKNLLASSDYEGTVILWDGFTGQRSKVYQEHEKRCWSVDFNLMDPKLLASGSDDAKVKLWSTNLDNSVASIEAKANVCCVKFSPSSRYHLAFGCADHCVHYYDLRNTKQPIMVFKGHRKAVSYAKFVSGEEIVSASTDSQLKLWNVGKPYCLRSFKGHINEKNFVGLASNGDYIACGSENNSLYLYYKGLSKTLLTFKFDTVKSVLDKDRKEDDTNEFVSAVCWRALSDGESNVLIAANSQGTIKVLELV

LogD @ pH 7.4 [1] | Mean % remaining at 2 hrs in human Plasma (Plasma stability assay) [%] | EC50 [2] [nM] | logD [1] | SMILES | body weight [3] | hepatic fibrogenesis [3] | hepatic lipid droplets (FIG. 7A) [3] | liver triglyceride content [3] | serum cholesterol level [3] | total liver weight [3] | COP1 levels in liver and adipose lysates (COP1) | ATGL level (Western Blot) (ATGL [4]) | ATGL levels in liver and adipose lysates (ATGL [5])
2.17 | 97.40 | – | – | COCCn1c(=O)[nH]c2ccc(NC(=O)Nc3cccc(C(C)=O)c3)cc2c1=O [Compound 5, 1-(3-acetylphenyl)-3-(3-(2-methoxyethyl)-2,4-dioxo-1,2,3,4-tetrahydroquinazolin-6-yl)urea] | – | – | – | – | – | – | – | – | –
2.78 | 26.18 | 45.7 | – | COCCn1c(=O)c2cc(NC(=O)Nc3cccc(C(C)=O)c3)ccc2n(CCN2CCCCC2)c1=O [Compound 62, 1-(3-acetylphenyl)-3-(3-(2-methoxyethyl)-2,4-dioxo-1-(2-(piperidin-1-yl)ethyl)-1,2,3,4-tetrahydroquinazolin-6-yl)urea] | Reductions | improvement in hepatic fibrogenesis | considerable depletion of hepatic lipid droplets | Reductions | Reductions | Reductions | effective in increasing ATGL and COP1 levels | increased ATGL level | effective in increasing ATGL and COP1 levels
– | 51.74 | – | 0.97 | COCCn1c(=O)c2cc(NC(=O)Nc3cccc(C(C)=O)c3)ccc2n(CCCN2CCOCC2)c1=O [Compound 94, 1-(3-acetylphenyl)-3-(3-(2-methoxyethyl)-1-(3-morpholinopropyl)-2,4-dioxo-1,2,3,4-tetrahydroquinazolin-6-yl)urea] | – | – | – | – | – | – | – | – | –

From US20250154112A1, “A PREPARATION OF QUINAZOLINEDIONES AND USE THEREOF” (COUNCIL OF SCIENTIFIC AND INDUSTRIAL RESEARCH AN INDIAN …, priority 2021, published 2025)
